“Also recorded” adds a separate entry of the source.
How the values were obtained:
PAR4 [1] = target: T1, PAR4 (Homo sapiens, UniProt Q96RI0); test: PAC-1 binding assay; format: cell-based; settings: for PAR4 activity (in words): PAR4-AP, PAC-1
T1 sequence (Q96RI0 18-385): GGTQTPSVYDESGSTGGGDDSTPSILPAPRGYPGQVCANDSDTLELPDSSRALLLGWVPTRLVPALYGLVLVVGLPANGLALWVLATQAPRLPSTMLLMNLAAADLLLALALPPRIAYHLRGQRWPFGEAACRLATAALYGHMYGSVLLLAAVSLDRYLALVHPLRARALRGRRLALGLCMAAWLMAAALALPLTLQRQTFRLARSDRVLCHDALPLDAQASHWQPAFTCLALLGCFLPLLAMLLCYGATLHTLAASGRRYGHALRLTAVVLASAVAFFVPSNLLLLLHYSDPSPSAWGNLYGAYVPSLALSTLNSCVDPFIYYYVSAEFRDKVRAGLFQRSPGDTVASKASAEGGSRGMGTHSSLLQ

PAR4 [2] = target: T2, PAR4 (Homo sapiens, UniProt Q96RI0); settings: literature antagonists; cited from earlier work
T2 sequence (Q96RI0 48-385): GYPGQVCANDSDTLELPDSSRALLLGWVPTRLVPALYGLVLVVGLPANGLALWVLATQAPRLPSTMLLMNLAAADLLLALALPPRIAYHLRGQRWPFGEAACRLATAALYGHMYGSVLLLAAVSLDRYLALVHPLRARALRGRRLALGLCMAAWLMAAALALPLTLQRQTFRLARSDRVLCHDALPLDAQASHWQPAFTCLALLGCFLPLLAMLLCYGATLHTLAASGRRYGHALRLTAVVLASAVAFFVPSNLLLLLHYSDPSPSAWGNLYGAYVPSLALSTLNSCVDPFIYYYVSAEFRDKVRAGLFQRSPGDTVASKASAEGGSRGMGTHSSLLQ

PAR4 [3] = settings: read-out: EC50 for PAR4; thrombin as agonist; background statement; cited from earlier work
PAR4 [4] = target: T1, PAR4; test: Progressive fold-shift inhibition assay/Schild analysis; format: cell-based
In vivo rat PK = settings: plasma, iv, 0.2 mg/kg
[5] = Predicted hepatic clearance in rat microsomes; format: in vitro ADME
[6] = Predicted hepatic clearance in human microsomes; format: in vitro ADME

Q: Which “PAR4 activity (in words)” value (PAR4 [1]) does the source give for `OCc1c(-c2cncnc2)c2cc(OC(F)(F)F)ccc2n1Cc1ccc(F)cc1F` [10b] here?
A: inactive

Q: For `COc1ccc(-c2c(CO)n(Cc3cccc(F)c3)c3ccc(OC(F)(F)F)cc23)cn1` [9e], which “PAR4 activity (in words)” value (PAR4 [1]) is on record?
A: devoid of PAR4 activity

Q: With `CSc1ncc(-c2c(CO)n(Cc3ccc(F)cc3F)c3ccc(OC(F)(F)F)cc23)cn1` [10c] as the molecule, how does the IC50 (PAR4 [1]) read?
A: 1490 nM

Q: With `CCOC(=O)c1ccc(-c2nn(Cc3ccccc3)c3ccccc23)cc1` [compound 1] as the molecule, how does the “activity upon γ-thrombin activation (in words)” value (PAR4 [2]) read?
A: lack of activity

Q: Which “PAR4 activity (in words)” value (PAR4 [1]) does the source give for `COc1cccc(Cn2c(CO)c(-c3ccc(OC)nc3)c3cc(C(F)(F)F)ccc32)c1` [9d] here?
A: devoid of PAR4 activity

Q: For `COc1ccc(-c2c(CO)n(Cc3ccccc3Cl)c3cc(OC(F)(F)F)ccc23)cn1` [11d], which IC50 (PAR4 [1]) is on record?
A: 930 nM

Q: Which “PAR4 activity (in words)” value (PAR4 [1]) does the source give for `COc1ccc(-c2c(CO)n(Cc3ccccc3)c3ccc(OC(F)(F)F)cc23)cn1` [9b] here?
A: devoid of PAR4 activity

Q: For `COc1ccc(-c2c(CO)n(Cc3ccccc3F)c3ccc(OC(F)(F)F)cc23)cn1` [9c], which “PAR4 activity (in words)” value (PAR4 [1]) is on record?
A: devoid of PAR4 activity

Q: With `COc1ccc(-c2c(CO)n(Cc3cccc(Cl)c3)c3ccc(OC(F)(F)F)cc23)cn1` [9h] as the molecule, how does the “PAR4 activity (in words)” value (PAR4 [1]) read?
A: devoid of PAR4 activity

Q: Which “PAR4 activity (in words)” value (PAR4 [1]) does the source give for `COc1ccc(-c2c(CO)n(C)c3ccc(C(F)(F)F)cc23)cn1` [9a] here?
A: devoid of PAR4 activity

Q: For Thrombin, which EC50 (PAR4 [3]) is on record?
A: ~5 nM

Q: For `COc1nn2cc(-c3c(CO)n(Cc4ccccc4Cl)c4ccc(OC(F)(F)F)cc34)nc2s1` [10h], which “mode of PAR4 inhibition” value (PAR4 [4]) is on record?
A: complex mode of PAR4 inhibition; also recorded: mixed competitive/noncompetitive mechanism of action

Q: What about the clearance at 6 h (In vivo rat PK) of the same molecule?
A: 45 mL/min/kg

Q: And the “rat CLHEP” value [5]?
A: 36.1 mL/min/kg

Q: And the “human CLHEP” value [6]?
A: 1.1 mL/min/kg

Reference: paper PMC5775816 (Journal of medicinal chemistry, 2016)
